According to patent US20070032477A1, “Pteridine derivatives useful for making pharmaceutical compositions” (priority 2003, published 2007):
Where a name gives a salt, the structure may show the parent alone.

Tests used:
[1] = test system: mixed lymphocyte reaction (PBMC with allogeneic PBMC or Eppstein-Barr Virus-transformed human B cells as stimulator cells); assay: Mixed lymphocyte reaction (MLR) assay; format: cell-based; settings: lowest concentration giving 50% suppression of the MLR; [3H]-thymidine
[2] = test system: production of TNF-α by PBMC in response to stimulation by LPS; assay: TNF-α assay; format: cell-based, human; settings: LPS 1 μg/ml, 72 hours, sandwich ELISA
Outline: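 Cells were LPS-stimulated (1 μg/ml final) peripheral blood mononuclear cells at 10^6/ml, exposed 72 h at 37 °C to 0.1, 1 or 10 μM test compound.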

[3] = Plasma levels after oral administration in healthy mice; format: in vivo, C57BL/6 mice; settings: 20 mg/kg once a day
Description: Each group of 6 mice received the indicated dose at time point 0 and were bled at 1, 3 and 5 hours after compound administration. Quantification was performed using a calibration curve of known compound concentrations spiked in control serum.
The plasma levels of the tested compound (example 176) was evaluated in C57BL/6 mice 8-10 weeks old Harlan, weighing 18.6-22.0 g after oral administration of 20, 10, 5 and 1 mg/kg, respectively (n=6 per dose). The tested compound (example 176) was dissolved in water to the appropriate concentration in order to deliver a constant gavage volume of 10 μl/g of body weight. Blood was collected by eye bleeding with heparinized capillaries at 1, 3, and 5 hours after dosing from each animal. The plasma fraction was immediately separated by centrifugation for 2 minutes at 12,000 g and stored at −80° C. until analysis. Each plasma sample was spiked with internal standard followed by the addition of 4 volumes of methanol. The samples were kept for 30 minutes on ice prior to centrifugation (10 minutes at 12,000 g) in order to remove precipitated proteins. The supernatant was analyzed for the presence of the tested compound (example 176), using LC/MS/MS. As standard for the bio-analysis, the tested compound (example 176) was diluted stepwise; each dilution was added to control plasma; additionally spiked with internal standard, giving rise to standard curves from 200 to 40,000 nM.

[4] = Mixed lymphocyte reaction (MLR) assay; format: cell-based, human; settings: Homo sapiens, Lymphocyte; lowest concentration giving 50% suppression of the MLR; [3H]-thymidine
[5] = test system: production of IL-1 β by PBMC in response to stimulation by LPS; assay: IL-1 β assay; format: cell-based, human; settings: LPS 1 μg/ml, 72 hours, sandwich ELISA
Description: Peripheral blood mononuclear cells (herein referred as PBMC), in response to stimulation by lipopolysaccharide (LPS), a gram-negative bacterial endotoxin, produce various […], in particular human IL-1 β. Inhibition of the activation of PBMC can therefore be measured by the level of suppression of the production of IL-1 β by PBMC in response to stimulation by LPS.
Such inhibition measurement was performed as follows: PBMC were isolated from heparinized peripheral blood by density gradient centrifugation over Lymphoprep (commercially available from Nycomed, Norway). LPS was then added to the PMBC suspension in complete medium (10^6 cells/ml) at a final concentration of 1 μg/ml. The pteridine derivative to be tested was added at different concentrations (0.1 μM, 1 μM and 10 μM) and the cells were incubated at 37° C. for 72 hours in 5% CO2. The supernatants were collected, then IL-1 β concentrations were measured with an anti-IL-1 β antibody in a sandwich ELISA. The calorimetric reading of the ELISA was measured by a Multiskan RC plate reader (commercially available from ThermoLabsystems, Finland) at 450 nm (reference wavelength: 690 nm). Data analysis was performed with Ascent software 2.6. (also from ThermoLabsystems, Finland): a standard curve (recombinant human IL-1 β) was drawn and the amount (pg/ml) of each sample on the standard curve was determined.
The % suppression of human IL-1 β by the pteridine derivatives (drugs) of this invention was calculated using the formula: [formula]

Compound	IC50 [1]	IC50 [2]	serum concentrations versus in vitro IC50 for IL-1β production or T cell activation [3]	IC50 [4]	IC50 ([2]; Homo sapiens)	IC50 [5]
CCCCCC(=O)N1CCN(c2nc(N)nc3ncc(-c4ccc(OC)c(OC)c4)nc23)CC1 [Example 10, 2-amino-4-[(N-hexanoyl)-piperazin-1-yl]-6-(3,4-dimethoxyphenyl)pteridine]	100 nM	70 nM	insufficient to inhibit IL-1β production or T cell activation	–	–	–
COc1ccc(-c2cnc3nc(NCc4cccs4)nc(N)c3n2)cc1OC [Example 80, 2-(2-thienylmethylamino)-4-amino-6-(3,4-dimethoxyphenyl)pteridine]	–	–	–	4700 nM	–	–
CCOCCN1CCN(c2nc(N)nc3ncc(-c4ccc(OC)c(OC)c4)nc23)CC1 [Example 165, 2-amino-6-(3,4-dimethoxyphenyl)-4-(4-(2-ethoxyethyl)-piperazin-1-yl)pteridine]	–	–	–	2900 nM	300 nM	–
COc1ccc(-c2cnc3nc(N)nc(N4CCN(CCN5CCCCC5)CC4)c3n2)cc1OC [Example 184, 2-amino-6-(3,4-dimethoxyphenyl)-4-(4-(2-piperidin-1-yl-ethyl)-piperazin-1-yl)pteridine trihydrochloride salt]	–	–	–	7700 nM	700 nM	–
CCCN(CCC)CCN1CCN(c2nc(N)nc3ncc(-c4ccc(OC)c(OC)c4)nc23)CC1 [Example 183, 2-amino-6-(3,4-dimethoxyphenyl)-4-(4-(2-dipropylaminoethyl)-piperazin-1-yl)pteridine trihydrochloride salt]	–	–	–	8200 nM	1200 nM	–
COc1ccc(-c2cnc3nc(N)nc(N4CCN(c5ncccn5)CC4)c3n2)cc1OC [Example 147, 2-amino-4-((2-pyrimidinyl)-piperazin-1-yl)-6-(3,4-dimethoxyphenyl)pteridine]	200 nM	100 nM	–	–	–	4300 nM
COc1ccc(N2CCN(c3nc(N)nc4ncc(-c5ccc(OC)c(OC)c5)nc34)CC2)cc1 [Example 161, 2-amino-4-((4-methoxyphenyl)-piperazin-1-yl)-6-(3,4-dimethoxyphenyl)pteridine]	400 nM	60 nM	–	–	–	3200 nM
COc1ccc(-c2cnc3nc(N)nc(N4CCN(CCOc5ccccc5)CC4)c3n2)cc1OC [Example 154]	100 nM	30 nM	–	–	–	2200 nM
COc1ccc(-c2cnc3nc(N)nc(N4CCN(C(=S)N(C)C)CC4)c3n2)cc1OC [Example 49, 2-amino-4-[(N-dimethylthiocarbamoyl)-piperazin-1-yl]-6-(3,4-dimethoxy-phenyl)pteridine]	400 nM	70 nM	–	–	–	2200 nM
COc1ccc(-c2cnc3nc(N)nc(N4CCN(CCc5ccccc5)CC4)c3n2)cc1OC [Example 159, 2-amino-4-(N-phenethylpiperazin-1-yl)-6-(3,4-dimethoxyphenyl)pteridine]	110 nM	20 nM	–	–	–	5400 nM
COc1ccc(-c2cnc3nc(N)nc(N4CCN(C(=O)N(C(C)C)C(C)C)CC4)c3n2)cc1OC [Example 20, 2-amino-4-[(N-diisopropylcarbamoyl)-piperazin-1-yl]-6-(3,4-dimethoxy-phenyl)pteridine]	500 nM	30 nM	–	–	–	8500 nM
COc1ccc(-c2cnc3nc(N)nc(N4CCN(CC5CCCCC5)CC4)c3n2)cc1OC [Example 123]	3900 nM	800 nM	–	–	–	4200 nM
COc1ccc(-c2cnc3nc(N)nc(N4CCN(c5ccccc5)CC4)c3n2)cc1OC [Example 64, 2-amino-4-(N-phenylpiperazin-1-yl)-6-(3,4-dimethoxyphenyl)pteridine]	400 nM	50 nM	–	–	–	4400 nM
COc1ccc(-c2cnc3nc(N)nc(N4CCN(c5ccc(Cl)c(Cl)c5)CC4)c3n2)cc1OC [Example 150, 2-amino-4-((3,4-dichlorophenyl)-piperazin-1-yl)-6-(3,4-dimethoxyphenyl)pteridine]	1000 nM	300 nM	–	–	–	3500 nM
2-amino-4-((1-phenylethyl)-piperazin-1-yl)-6-(3,4-dimethoxyphenyl)pteridine [Example 152]	1200 nM	300 nM	–	–	–	3600 nM
CCC(CC)N1CCN(c2nc(N)nc3ncc(-c4ccc(OC)c(OC)c4)nc23)CC1 [Example 166, 2-amino-6-(3,4-dimethoxyphenyl)-4-(pent-3-yl-piperazin-1-yl)pteridine]	5300 nM	800 nM	–	–	–	4400 nM
COc1ccc(-c2cnc3nc(N)nc(N4CCN(c5ccc(C)c(C)c5)CC4)c3n2)cc1OC [Example 174, 2-amino-6-(3,4-dimethoxyphenyl)-4-((3,4-dimethylphenyl)-piperazin-1-yl)pteridine]	500 nM	110 nM	–	–	–	5000 nM
COc1ccc(-c2cnc3nc(N)nc(N4CCN(CCCc5ccccc5)CC4)c3n2)cc1OC [Example 149]	500 nM	300 nM	–	–	–	4900 nM
COc1ccc(-c2cnc3nc(N)nc(N4CCN(C(=O)OCC(C)C)CC4)c3n2)cc1OC [Example 95, 2-amino-4-[N-isobutoxy-carbonyl-piperazin-1-yl]-6-(3,4-dimethoxyphenyl)pteridine]	120 nM	100 nM	–	–	–	1000 nM
COc1ccc(-c2cnc3nc(N)nc(N4CCN(C(=O)Cc5cccs5)CC4)c3n2)cc1OC [Example 36, 2-amino-4-[(N-2-thiophenacetyl)-piperazin-1-yl]-6-(3,4-dimethoxy-phenyl)pteridine]	800 nM	300 nM	–	–	–	800 nM
COc1ccc(-c2cnc3nc(N)nc(N4CCN(C(=O)C=Cc5ccccc5)CC4)c3n2)cc1OC [Example 37, 2-amino-4-[(N-cinnamoyl)-piperazin-1-yl]-6-(3,4-dimethoxyphenyl)pteridine]	< 1 nM	100 nM	–	–	–	3300 nM
COc1ccc(-c2cnc3nc(NCc4ccccc4)nc(N)c3n2)cc1OC [Example 82, 2-benzylamino-4-amino-6-(3,4-dimethoxyphenyl)pteridine]	–	–	–	3200 nM	–	–
COc1ccc(-c2cnc3nc(N4CCCCC4)nc(N)c3n2)cc1OC [Example 87, 4-amino-2-piperidino-6-(3,4-dimethoxyphenyl)pteridine]	–	–	–	8400 nM	–	–
COc1ccc(-c2cnc3nc(N)nc(N4CCN(CCC5OCCO5)CC4)c3n2)cc1OC [Example 164, 2-amino-6-(3,4-dimethoxyphenyl)-4-(4-(2-(1,3)-dioxolan-2-yl-ethyl)-piperazin-1-yl)pteridine]	–	–	–	2300 nM	200 nM	–
COc1ccc(-c2cnc3nc(N)nc(N4CCC(C(=O)CN5CCNCC5)C4)c3n2)cc1OC (stereo not shown) [Example 131, 2-amino-4-(4-[2-(piperazin-1-yl)-acetyl]-pyrrolidino)-6-(3,4-dimethoxy-phenyl)pteridine]	–	–	–	300 nM	1900 nM	–
